This assay has as its system 168753-222-R-J1-PDC complex spheroid viability. Nature of the assay: Anticancer human tumor 168753-222-R-J1-PDC patient-derived bladder carcinoma cell line growth inhibition [CLK]. The conditions noted are these: for viability, T/C: stronger effect = lower value. The text has this:
A high-throughput screen of multi-cell type tumor spheroids was designed to identify active combinations of […] and targeted small molecules. Complex spheroids include a stromal component modeled by human endothelial cells (HUVEC) and fibroblasts modeled by human mesenchymal stem cells (MSCs). The concentration ranges selected for each drug and investigational agent were based upon clinically achievable concentrations if the clinical Cmax of the agent was known.
Compounds. The drugs and investigational agents: cirtuvivint (SM08502; NSC835563), CC-671 (NSC850746), vemurafenib (NSC761431), tapotoclax (NSC804041), sotorasib (NSC818433), adagrasib (NSC831453), MRTX-1133 (NSC836407), BAY2416964 (NSC825713), copanlisib (NSC816437), inavolisib (NSC800729), abemaciclib (NSC768073), osimertinib (NSC779217), entinostat (NSC756642), eltanexor (KPT-8602, NSC794443), venetoclax (NSC766270), ceralasertib (NSC777638), bortezomib (NSC756655), olaparib (NSC753686), talazoparib (NSC767125), alisertib (NSC759677), peposertib (NSC802822), gemcitabine (NSC613327), 5-fluorouracil (NSC19893), SN-38 (NSC673596), oxaliplatin (NSC266046), paclitaxel (NSC125973), and doxorubicin (NSC123127), were obtained from the National Cancer Institute (NCI) Developmental Therapeutics Program Chemical Repository. The FDA-approved anticancer drug set is available from the Developmental Therapeutics Program at https://dtp.cancer.gov/organization/dscb/obtaining/available plates.htm. […] The stock solutions were prepared in dimethyl sulfoxide (DMSO, Sigma-Aldrich, St. Louis, MO, cat. D2650), except for the platinum complexes which were prepared in saline (Quality Biological, Gaithersburg, MD, cat. 114-055-101), at 800-fold the tested concentration and stored at -70 degrees C prior to their use. All drugs and investigational agents were tested over a range starting from a high concentration at or near the clinical Cmax and decreasing in half-log increments. If the clinical Cmax for an agent had not been determined, the highest concentration tested was 10 microM.
Cell Culture. All cells were maintained in an incubator at 37 degrees C and 5% CO2 with 95% humidity. The PDC lines were cultured according to standard operating procedures established by the NCI PDMR. Briefly, all PDCs were thawed and cultured in Matrigel-coated flasks prepared with a working solution of 1X Ham's F-12 nutrient mix, without supplementation (Invitrogen, Waltham, MA, cat. 11765054), 100 U/mL penicillin-streptomycin (Invitrogen, cat. 15140122), and 2.5% Matrigel (Corning Inc., Corning, NY, cat. 354248) for the first three passages. The 947758-054-R-J2-PDC line was cultured in 6B/Colon 1A media, which includes advanced DMEM/F-12 (Thermo Fisher Scientific, cat. 12634028), 10 mM HEPES (Thermo Fisher Scientific, cat. 15630080), 1X GlutaMAX supplement (Thermo Fisher Scientific, cat. 35050061), 0.1 mg/mL primocin (InvivoGen, cat. ant-pm-2), 10% defined fetal bovine serum, heat inactivated (HyClone Laboratories Inc., cat. SH30070.03HI), 1.25 mM N-Acetyl-L-cysteine (Sigma-Aldrich, cat. A9165), 10 mM nicotinamide (Sigma-Aldrich, cat. N0636), 1X B-27 supplement (Thermo Fisher Scientific, cat. 17504044), 1X N-2 supplement (Thermo Fisher Scientific, cat. 17502048), and 10 microM Y-27632 dihydrochloride (Tocris Bioscience, cat. 1254). The 876862-298-R-J1-PDC was cultured in 6E media, which includes all 6B/Colon 1A media components plus 50% L-WRN conditioned media (ATCC, cat. CRL-3276), 50 ng/mL recombinant human EGF recombinant protein (hEGF; Thermo Fisher Scientific, cat. PHG0311), 10 ng/mL recombinant human fibroblast growth factor 10 (hGFG-10; PeproTech, cat. 100-26), 1 ng/mL recombinant human fibroblast growth factor 2 (hFGF-2; PeproTech, cat. 100-18B), and 1 µM prostaglandin E2 (PGE2; Tocris, cat. 2296). The 227483-062-R1-J1-PDC line was cultured in Panc media, containing all 6E components except hFGF-2, with the addition of 500 nM SB-431542 (Selleckchem, cat. S1067) and 10 nM gastrin (Tocris, cat. 3006). […]

The mark [1] stands for this setting: curve of first compound, second compound 0.0316 µM.
The mark [2] stands for this setting: curve of first compound, second compound 0.1 µM.
Where [3] appears, read: curve of first compound, second compound 0.316 µM.
[4] abbreviates: curve of first compound, second compound 1 µM.
[5] abbreviates: curve of first compound, second compound 3.16 µM.
The mark [6] stands for this setting: curve of first compound, second compound 10 µM.
The mark [7] stands for this setting: second compound 0.0316 µM, first compound 0.0316 µM.
Where [8] appears, read: second compound 0.0316 µM, first compound 0.1 µM.
[9] abbreviates: second compound 0.0316 µM, first compound 0.316 µM.
The mark [10] stands for this setting: second compound 0.0316 µM, first compound 1 µM.
[11] abbreviates: second compound 0.0316 µM, first compound 3.16 µM.
Setting [12] is: second compound 0.0316 µM, first compound 10 µM.
Setting [13] is: second compound 0.1 µM, first compound 0.0316 µM.
[14] abbreviates: second compound 0.1 µM, first compound 0.1 µM.
The mark [15] stands for this setting: second compound 0.1 µM, first compound 0.316 µM.
[16] abbreviates: second compound 0.1 µM, first compound 1 µM.
[17] abbreviates: second compound 0.1 µM, first compound 3.16 µM.
Where [18] appears, read: second compound 0.1 µM, first compound 10 µM.
The mark [19] stands for this setting: second compound 0.316 µM, first compound 0.0316 µM.
[20] abbreviates: second compound 0.316 µM, first compound 0.1 µM.
[21] abbreviates: second compound 0.316 µM, first compound 0.316 µM.
Setting [22] is: second compound 0.316 µM, first compound 1 µM.
Where [23] appears, read: second compound 0.316 µM, first compound 3.16 µM.
The mark [24] stands for this setting: second compound 0.316 µM, first compound 10 µM.
Where [25] appears, read: second compound 1 µM, first compound 0.0316 µM.
The mark [26] stands for this setting: second compound 1 µM, first compound 0.1 µM.
Where [27] appears, read: second compound 1 µM, first compound 0.316 µM.
[28] abbreviates: second compound 1 µM, first compound 1 µM.
[29] abbreviates: second compound 1 µM, first compound 3.16 µM.
[30] abbreviates: second compound 1 µM, first compound 10 µM.
Setting [31] is: second compound 3.16 µM, first compound 0.0316 µM.
Where [32] appears, read: second compound 3.16 µM, first compound 0.1 µM.
Where [33] appears, read: second compound 3.16 µM, first compound 0.316 µM.
Where [34] appears, read: second compound 3.16 µM, first compound 1 µM.
Setting [35] is: second compound 3.16 µM, first compound 3.16 µM.
Where [36] appears, read: second compound 3.16 µM, first compound 10 µM.
Where [37] appears, read: second compound 10 µM, first compound 0.0316 µM.
Setting [38] is: second compound 10 µM, first compound 0.1 µM.
Where [39] appears, read: second compound 10 µM, first compound 0.316 µM.
[40] abbreviates: second compound 10 µM, first compound 1 µM.
The mark [41] stands for this setting: second compound 10 µM, first compound 3.16 µM.
The mark [42] stands for this setting: second compound 10 µM, first compound 10 µM.

“And” between values parts separate entries of the source, which are not always exact repeats. Identical values can stand only once.
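Further: viability measured after seven days of drug exposure.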
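Wherever viability, T/C is given: luminescence signal used as surrogate for viable cell amount; 100% = DMSO vehicle control wells.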

On to `CC(CO)NC(=O)c1cc(-c2ccc(Cl)cc2)nn(-c2cnn(C)c2)c1=O` (stereo not given) + CN1CCN(c2cc(C(=O)Nc3cc4cc(-c5cnn(C)c5)ccc4cn3)ccn2)CC1, for which the IC50 under setting [1] is above 10000 nM; the IC50 under setting [2] is 5220 nM; the IC50 under setting [3] was below 31.6 nM; the IC50 under setting [4] is below 31.6 nM; the half-maximal inhibitory concentration (IC50) under setting [5] was below 31.6 nM; the 50% inhibitory concentration (IC50) under setting [6] is below 31.6 nM. Besides, the viability, T/C is 98.7% under setting [7]; 130% under setting [8]; 64% under setting [9]; 112% under setting [10]; 117% under setting [11]; 88.2% under setting [12]. For the same compound, the viability, T/C was 87.2% under setting [13]; 81.8% under setting [14]; 64.1% under setting [15]; 73.3% under setting [16]; 58.6% under setting [17]; 39.6% under setting [18]. Also, the viability, T/C under setting [19] is 19.4%; the viability, T/C under setting [20] was 13.6%; the viability, T/C under setting [21] is 16.8%; the viability, T/C under setting [22] was 13.8%; the viability, T/C under setting [23] was 19.1%; the viability, T/C under setting [24] is 13.8%. Also, the viability, T/C runs as follows: under setting [25], 0.44%; under setting [26], 0.4%; under setting [27], 0.31%; under setting [28], 0.55%; under setting [29], 0.46%; under setting [30], 3.13%. The viability, T/C reads like this: under setting [31], 0.2%; under setting [32], 0.16%; under setting [33], 2.4%; under setting [34], 0.15%; under setting [35], 2.55%; under setting [36], 0.21%. The viability, T/C is, setting by setting: under setting [37], 0.26%; under setting [38], 0.45%; under setting [39], 0.61%; under setting [40], 0.27%; under setting [41], 1.02%; under setting [42], 2.24%.
For the compound `CC(=O)O[C@H]1C(=O)[C@@]2(C)[C@H]([C@H](OC(=O)c3ccccc3)[C@]3(O)C[C@H](OC(=O)[C@H](O)[C@@H](NC(=O)c4ccccc4)c4ccccc4)C(C)=C1C3(C)C)[C@]1(OC(C)=O)CO[C@@H]1C[C@@H]2O`, the viability, T/C was 22.5% and 55.4% (compound 0.0316 µM); 10.6% and 32.8% (compound 0.1 µM); 11.2% and 23.4% (compound 0.316 µM); 12.6% and 36.7% (compound 1 µM); 16% and 32.8% (compound 3.16 µM); 20.1% and 42.8% (compound 10 µM). Besides, the IC50 (curve of compound) was below 31.6 nM.
In the case of `CC1(C)CCC(CN2CCN(c3ccc(C(=O)NS(=O)(=O)c4ccc(NCC5CCOCC5)c([N+](=O)[O-])c4)c(Oc4cnc5[nH]ccc5c4)c3)CC2)=C(c2ccc(Cl)cc2)C1`, the viability, T/C (compound 0.0316 µM) was 87% and 96.7%; the viability, T/C (compound 0.1 µM) is 97% and 94.3%; the viability, T/C (compound 0.316 µM) is 74% and 113%; the viability, T/C (compound 1 µM) is 112% and 102%; the viability, T/C (compound 3.16 µM) was 54.4% and 93.3%; the viability, T/C (compound 10 µM) is 10.7% and 22%. Moreover, the concentration for half-maximal inhibition (IC50) (curve of compound) is 3550 nM and 6370 nM.
Turning to `CC(Nc1ccc2c(c1)OCCn1cc(N3C(=O)OCC3C(F)F)nc1-2)C(N)=O` (stereo not given), the viability, T/C runs as follows: (compound 0.0316 µM) 86.9% and 78.6%; (compound 0.1 µM) 45.8% and 69.2%; (compound 0.316 µM) 20.7% and 22.8%; (compound 1 µM) 13.3% and 18.8%; (compound 3.16 µM) 10.3% and 13.1%; (compound 10 µM) 11% and 14.8%. Moreover, for the setting “curve of compound”, the IC50 is 88.9 nM and 161 nM.
Consider `Nc1ccccc1NC(=O)c1ccc(CNC(=O)OCc2cccnc2)cc1` + CN1CCN(c2cc(C(=O)Nc3cc4cc(-c5cnn(C)c5)ccc4cn3)ccn2)CC1, for which the IC50 is 554 nM under setting [1]; below 31.6 nM under setting [2]; below 31.6 nM under setting [3]; below 31.6 nM under setting [4]; below 31.6 nM under setting [5]; below 31.6 nM under setting [6]. The viability, T/C by setting is: under setting [7], 96.5%; under setting [8], 58.7%; under setting [9], 54.6%; under setting [10], 54%; under setting [11], 24.3%; under setting [12], 7.33%. Besides, the viability, T/C is, setting by setting: under setting [13], 50%; under setting [14], 41.3%; under setting [15], 38.2%; under setting [16], 43.9%; under setting [17], 22.6%; under setting [18], 0.13%. Further, the viability, T/C runs as follows: under setting [19], 9.09%; under setting [20], 8.55%; under setting [21], 7.31%; under setting [22], 7.09%; under setting [23], 0.22%; under setting [24], 0.07%. Further, the viability, T/C was 0.13% under setting [25]; 0.23% under setting [26]; 0.08% under setting [27]; 0.05% under setting [28]; 0.16% under setting [29]; 0.89% under setting [30]. Moreover, the viability, T/C is 0.79% under setting [31]; 0.08% under setting [32]; 0.09% under setting [33]; 0.06% under setting [34]; 0.71% under setting [35]; 0.95% under setting [36]. Moreover, the viability, T/C reads like this: under setting [37], 0.06%; under setting [38], 0.23%; under setting [39], 0.32%; under setting [40], 0.1%; under setting [41], 0.24%; under setting [42], 1.08%.

The IC50 is the concentration that inhibits the measured activity by half. As a reminder, the viability, T/C is the result in the treated group divided by that in the control group, in per cent.

Source of the values: PubChem BioAssay AID2060626 (Molecular Pharmacology Branch, DTP, NCI, 2025).
